Data on five compounds can be found in PubChem BioAssay AID1745844 (Carcinogenic Potency Database (CPDB), 2022).

The test system of this data set is rodent lifetime carcinogenesis bioassay, tumor incidence TD50. As to the kind of experiment: chronic cancer bioassays in animals – CPDB, compiled studies (AID 1745844).

Activity calls are given as the source filed them. How the calls were made is not given here.

The TD50 is the 50% point of the dose-response relation for the toxic effect studied.

`NNc1ccc(C(=O)O)cc1`: the TD50 is 2660 mg/kg/day (mouse, strain Swiss albino, females, in drinking water, site: aorta and large arteries, lesion: leiomyoma, dosed 121 weeks, study length 121 weeks); 1970 mg/kg/day (mouse, strain Swiss albino, females, in drinking water, site: aorta and large arteries, lesion: leiomyosarcoma, dosed 121 weeks, study length 121 weeks); 1070 mg/kg/day (mouse, strain Swiss albino, females, in drinking water, site: aorta and large arteries, lesion: several types, types named in the paper, dosed 121 weeks, study length 121 weeks); 11200 mg/kg/day (mouse, strain Swiss albino, females, in drinking water, site: lung, lesion: adenocarcinoma, dosed 121 weeks, study length 121 weeks); 1170 mg/kg/day (mouse, strain Swiss albino, females, in drinking water, site: lung, lesion: adenoma, dosed 121 weeks, study length 121 weeks); 1140 mg/kg/day (mouse, strain Swiss albino, females, in drinking water, site: lung, lesion: several types, types named in the paper, dosed 121 weeks, study length 121 weeks). For the same compound, the TD50 was 1490 mg/kg/day (mouse, strain Swiss albino, males, in drinking water, site: aorta and large arteries, lesion: leiomyoma, dosed 120 weeks, study length 120 weeks); 609 mg/kg/day (mouse, strain Swiss albino, males, in drinking water, site: aorta and large arteries, lesion: leiomyosarcoma, dosed 120 weeks, study length 120 weeks); 380 mg/kg/day (mouse, strain Swiss albino, males, in drinking water, site: aorta and large arteries, lesion: several types, types named in the paper, dosed 120 weeks, study length 120 weeks); 597 mg/kg/day (mouse, strain Swiss albino, males, in drinking water, site: lung, lesion: adenoma, dosed 120 weeks, study length 120 weeks); 675 mg/kg/day (mouse, strain Swiss albino, males, in drinking water, site: lung, lesion: several types, types named in the paper, dosed 120 weeks, study length 120 weeks). In addition, the carcinogen call (mouse, strain Swiss, females, by gavage, site: lung, lesion: one or several types, types not named, dosed 40 weeks, study length 55 weeks) was “negative (inactive)”.
For the compound `NC(N)=S`, the carcinogen call reads like this: (rat, strain Fischer 344, males, i.p., site: liver, lesion: one or several types, types not named, dosed 60 weeks, study length 60 weeks) “negative (inactive)”; (rat, strain Osborne-Mendel, females, in feed, site: any site (literature study), lesion: malignant tumor, dosed 104 weeks, study length 104 weeks) “negative (inactive)”; (rat, strain Osborne-Mendel, females, in feed, site: liver, lesion: one or several types, types not named, dosed 104 weeks, study length 104 weeks) “negative (inactive)”; (rat, strain Osborne-Mendel, females, in feed, site: liver, lesion: one or several types, types not named, dosed 113 weeks, study length 113 weeks) “negative (inactive)”; (rat, strain Osborne-Mendel, males, in feed, site: any site (literature study), lesion: malignant tumor, dosed 104 weeks, study length 104 weeks) “negative (inactive)”; (rat, strain Osborne-Mendel, males, in feed, site: liver, lesion: one or several types, types not named, dosed 104 weeks, study length 104 weeks) “negative (inactive)”. Moreover, for the setting “rat, strain Osborne-Mendel, males, in feed, site: liver, lesion: one or several types, types not named, dosed 113 weeks, study length 113 weeks”, the carcinogen call is “negative (inactive)”. The TD50 was 27.5 mg/kg/day (rat, strain Hebrew University, males, in drinking water, site: any site (literature study), lesion: several types, types named in the paper, dosed 113 weeks, study length 113 weeks); 93.5 mg/kg/day (rat, strain Hebrew University, males, in drinking water, site: auricular region, lesion: epidermoid carcinoma, dosed 113 weeks, study length 113 weeks); 93.5 mg/kg/day (rat, strain Hebrew University, males, in drinking water, site: eyelid, lesion: epidermoid carcinoma, dosed 113 weeks, study length 113 weeks); 50.8 mg/kg/day (rat, strain Hebrew University, males, several routes, site: any site (literature study), lesion: several types, types named in the paper, dosed 95 weeks, study length 95 weeks); 104 mg/kg/day (rat, strain Hebrew University, males, several routes, site: auricular region, lesion: epidermoid carcinoma, dosed 95 weeks, study length 95 weeks); 225 mg/kg/day (rat, strain Hebrew University, males, several routes, site: eyelid, lesion: epidermoid carcinoma, dosed 95 weeks, study length 95 weeks). The TD50 runs as follows: (rat, strain Osborne-Mendel, females, in feed, site: any site (literature study), lesion: benign tumor, dosed 104 weeks, study length 104 weeks) 15 mg/kg/day (inactive); (rat, strain Osborne-Mendel, females, in feed, site: any site (literature study), lesion: several types, types named in the paper, dosed 113 weeks, study length 113 weeks) 16.2 mg/kg/day (inactive); (rat, strain Osborne-Mendel, males, in feed, site: any site (literature study), lesion: benign tumor, dosed 104 weeks, study length 104 weeks) 64.7 mg/kg/day (inactive); (rat, strain Osborne-Mendel, males, in feed, site: any site (literature study), lesion: several types, types named in the paper, dosed 113 weeks, study length 113 weeks) 46.1 mg/kg/day (inactive).
`Cc1cccc(N)c1`: the TD50 is 1950 mg/kg/day (inactive) (mouse, strain CD-1 HaM/ICR, females, in feed, site: any site (literature study), lesion: several types, types named in the paper, dosed 77 weeks, study length 81 weeks); 9990 mg/kg/day (inactive) (mouse, strain CD-1 HaM/ICR, females, in feed, site: liver, lesion: several types, types named in the paper, dosed 77 weeks, study length 90 weeks); 1440 mg/kg/day (mouse, strain CD-1 HaM/ICR, males, in feed, site: liver, lesion: hepatoma, dosed 77 weeks, study length 90 weeks); 6770 mg/kg/day (mouse, strain CD-1 HaM/ICR, males, in feed, site: liver, lesion: several types, types named in the paper, dosed 77 weeks, study length 90 weeks); 98.4 mg/kg/day (inactive) (rat, strain Charles River CD (Sprague-Dawley), males, in feed, site: any site (literature study), lesion: several types, types named in the paper, dosed 77 weeks, study length 98 weeks). The carcinogen call was “negative (inactive)” (mouse, strain CD-1 HaM/ICR, females, in feed, site: any site (literature study), lesion: several types, types named in the paper, dosed 77 weeks, study length 90 weeks); “negative (inactive)” (mouse, strain CD-1 HaM/ICR, females, in feed, site: liver, lesion: several types, types named in the paper, dosed 77 weeks, study length 81 weeks); “negative (inactive)” (mouse, strain CD-1 HaM/ICR, females, in feed, site: lung, lesion: several types, types named in the paper, dosed 77 weeks, study length 81 weeks); “negative (inactive)” (mouse, strain CD-1 HaM/ICR, females, in feed, site: lung, lesion: several types, types named in the paper, dosed 77 weeks, study length 90 weeks); “negative (inactive)” (mouse, strain CD-1 HaM/ICR, males, in feed, site: lung, lesion: several types, types named in the paper, dosed 77 weeks, study length 90 weeks); “negative (inactive)” (rat, strain Charles River CD (Sprague-Dawley), males, in feed, site: liver, lesion: several types, types named in the paper, dosed 77 weeks, study length 98 weeks).
For `OCCN(CCO)c1nc(-c2cccs2)nc2ccccc12`, where the note is “rat, strain Sprague-Dawley, females, in feed, site: any site (literature study), lesion: several types, types named in the paper, dosed 46 weeks, study length 66 weeks”, the TD50 turned out to be 60.1 mg/kg/day.
`S=[Se]`: the TD50 is 69.7 mg/kg/day (mouse, strain B6C3F1, females, by gavage, site: any site (literature study), lesion: several types, types named in the paper, dosed 103 weeks, study length 104 weeks); 46.8 mg/kg/day (mouse, strain B6C3F1, females, by gavage, site: liver + lung, lesion: hepatocellular adenoma + hepatocellular carcinoma + alveolar/bronchiolar adenoma + alveolar/bronchiolar carcinoma, dosed 103 weeks, study length 104 weeks); 69.3 mg/kg/day (mouse, strain B6C3F1, females, by gavage, site: liver, lesion: hepatocellular adenoma + hepatocellular carcinoma + neoplastic nodule, dosed 103 weeks, study length 104 weeks); 69.3 mg/kg/day (mouse, strain B6C3F1, females, by gavage, site: liver, lesion: hepatocellular adenoma + hepatocellular carcinoma, dosed 103 weeks, study length 104 weeks); 85.2 mg/kg/day (mouse, strain B6C3F1, females, by gavage, site: liver, lesion: hepatocellular carcinoma, dosed 103 weeks, study length 104 weeks); 137 mg/kg/day (mouse, strain B6C3F1, females, by gavage, site: lung, lesion: alveolar/bronchiolar adenoma + alveolar/bronchiolar carcinoma, dosed 103 weeks, study length 104 weeks). For the same compound, the TD50 (mouse, strain B6C3F1, females, by gavage, site: lung, lesion: alveolar/bronchiolar carcinoma, dosed 103 weeks, study length 104 weeks) is 433 mg/kg/day; the TD50 (mouse, strain B6C3F1, males, by gavage, site: any site (literature study), lesion: several types, types named in the paper, dosed 103 weeks, study length 104 weeks) was 735 mg/kg/day (inactive); the TD50 (mouse, strain B6C3F1, males, by gavage, site: liver, lesion: hepatocellular adenoma + hepatocellular carcinoma + neoplastic nodule, dosed 103 weeks, study length 104 weeks) worked out at 202 mg/kg/day; the TD50 (mouse, strain B6C3F1, males, by gavage, site: lung, lesion: alveolar/bronchiolar adenoma + alveolar/bronchiolar carcinoma, dosed 103 weeks, study length 104 weeks) was 183 mg/kg/day; the TD50 (rat, strain Fischer 344, females, by gavage, site: any site (literature study), lesion: several types, types named in the paper, dosed 103 weeks, study length 104 weeks) came out at 19.3 mg/kg/day; the TD50 (rat, strain Fischer 344, females, by gavage, site: liver, lesion: hepatocellular adenoma + hepatocellular carcinoma + neoplastic nodule, dosed 103 weeks, study length 104 weeks) came to 6.14 mg/kg/day. Moreover, the TD50 (rat, strain Fischer 344, females, by gavage, site: liver, lesion: hepatocellular carcinoma + neoplastic nodule, dosed 103 weeks, study length 104 weeks) is 6.14 mg/kg/day; the TD50 (rat, strain Fischer 344, females, by gavage, site: liver, lesion: hepatocellular carcinoma, dosed 103 weeks, study length 104 weeks) is 13.2 mg/kg/day; the TD50 (rat, strain Fischer 344, males, by gavage, site: any site (literature study), lesion: several types, types named in the paper, dosed 103 weeks, study length 104 weeks) came to 25 mg/kg/day; the TD50 (rat, strain Fischer 344, males, by gavage, site: liver, lesion: hepatocellular adenoma + hepatocellular carcinoma + neoplastic nodule, dosed 103 weeks, study length 104 weeks) stood at 11.5 mg/kg/day; the TD50 (rat, strain Fischer 344, males, by gavage, site: liver, lesion: hepatocellular carcinoma + neoplastic nodule, dosed 103 weeks, study length 104 weeks) was 11.5 mg/kg/day; the TD50 (rat, strain Fischer 344, males, by gavage, site: liver, lesion: hepatocellular carcinoma, dosed 103 weeks, study length 104 weeks) was 21 mg/kg/day.
